Reference: PMC7307930, “Stereoselective Activity of 1-Propargyl-4-styrylpiperidine-like Analogues That Can Discriminate between Monoamine Oxidase Isoforms A and B” (Journal of Medicinal Chemistry, 2020)

Target: T1, hMAO-A (Homo sapiens, UniProt P21397)
T1 construct: purchased Sigma Aldrich; host or cells: baculovirus-infected insect cells (BTI-TN-5B1-4)
T1 sequence (P21397 1-527): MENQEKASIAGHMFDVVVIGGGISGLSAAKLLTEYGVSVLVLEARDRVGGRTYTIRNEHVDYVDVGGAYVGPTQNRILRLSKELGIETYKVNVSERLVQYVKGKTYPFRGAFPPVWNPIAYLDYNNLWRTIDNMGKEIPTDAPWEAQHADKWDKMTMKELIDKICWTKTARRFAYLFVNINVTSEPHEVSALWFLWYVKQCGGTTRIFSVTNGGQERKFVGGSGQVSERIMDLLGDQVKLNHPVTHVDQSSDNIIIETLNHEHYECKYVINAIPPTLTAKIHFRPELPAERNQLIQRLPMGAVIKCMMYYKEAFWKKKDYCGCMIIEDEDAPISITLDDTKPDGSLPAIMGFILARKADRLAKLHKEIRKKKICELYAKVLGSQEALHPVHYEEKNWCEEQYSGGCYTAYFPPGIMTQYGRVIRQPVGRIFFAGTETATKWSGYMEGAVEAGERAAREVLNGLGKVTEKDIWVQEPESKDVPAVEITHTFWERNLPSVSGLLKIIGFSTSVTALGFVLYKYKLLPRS
Experiment: hMAO-A inhibition, HRP–Amplex Red coupled fluorimetric assay
Format: biochemical
Conditions: supplement csv; RA at 100 micromolar
With `C#CCN1CCCC(/C=C/c2ccc(F)cc2)C1` (racemic) [Compound 19, (±)-(E)-3-(4-Fluorostyryl)-1-(prop-2-yn-1-yl)piperidine] the “IC50(MAO-A) class” value was “na (na-not_active(RA_at_100micromolar>50%))”. With `C#CCN1CCCC(/C=C/c2cc(F)c(F)cc2F)C1` (racemic) [Compound 20, (±)-(E)-1-(Prop-2-yn-1-yl)-3-(2,4,5-trifluorostyryl)piperidine] the “IC50(MAO-A) class” value was “na (na-not_active(RA_at_100micromolar>50%))”. In the case of `C#CCN1CCCC(CCc2ccc(F)cc2)C1` (racemic) [Compound 23, (±)-3-(4-Fluorophenethyl)-1-(prop-2-yn-1-yl)piperidine], the “IC50(MAO-A) class” value is reported as “na (na-not_active(RA_at_100micromolar>50%))”. For `C#CCN1CCCC(CCc2cc(F)c(F)cc2F)C1` (racemic) [Compound 24, (±)-3-(2,4,5-Trifluorophenethyl)-1-(prop-2-yn-1-yl)piperidine], the “IC50(MAO-A) class” value was “na (na-not_active(RA_at_100micromolar>50%))”. For `C#CCN1CCC(CCc2ccc(F)cc2)CC1` [Compound 25, 4-(4-Fluorophenethyl)-1-(prop-2-yn-1-yl)piperidine], the “IC50(MAO-A) class” value was “na (na-not_active(RA_at_100micromolar>50%))”. With `C#CCN1CCC(CCc2cc(F)c(F)cc2F)CC1` [Compound 26, 1-(Prop-2-yn-1-yl)-4-(2,4,5-trifluorophenethyl)piperidine] the “IC50(MAO-A) class” value was “na (na-not_active(RA_at_100micromolar>50%))”. In the case of `C#CCN1CCC(/C=C\c2ccc(C)cc2)CC1` [Compound 75, (Z)-4-(4-Methylstyryl)-1-(prop-2-yn-1-yl)piperidine], the “IC50(MAO-A) class” value is reported as “na (na-not_active(RA_at_100micromolar>50%))”. With `C#CCN1CCC(/C=C/c2ccc(C)cc2)CC1` [Compound 76, (E)-4-(4-Methylstyryl)-1-(prop-2-yn-1-yl)piperidine] the “IC50(MAO-A) class” value was “na (na-not_active(RA_at_100micromolar>50%))”. For `C#CCN1CCC(/C=C/c2ccc(Br)cc2)CC1` [Compound 81, (E)-4-(4-Bromostyryl)-1-(prop-2-yn-1-yl)piperidine], the “IC50(MAO-A) class” value was “na (na-not_active(RA_at_100micromolar>50%))”. With `C#CCN1CCC(/C=C/c2ccc(OC)cc2)CC1` [Compound 82, (E)-4-(4-Methoxystyryl)-1-(prop-2-yn-1-yl)piperidine] the “IC50(MAO-A) class” value was “na (na-not_active(RA_at_100micromolar>50%))”. In the case of `C#CCN1CCC(/C=C\c2ccc(C(F)(F)F)cc2)CC1` [Compound 83, (Z)-1-(Prop-2-yn-1-yl)-4-(4-(trifluoromethyl)styryl)piperidine], the “IC50(MAO-A) class” value is reported as “na (na-not_active(RA_at_100micromolar>50%))”. In the case of `C#CCN1CCC(/C=C\c2ccc(S(C)(=O)=O)cc2)CC1` [Compound 89, (Z)-4-(4-(Methylsulfonyl)styryl)-1-(prop-2-yn-1-yl)piperidine], the “IC50(MAO-A) class” value is reported as “na (na-not_active(RA_at_100micromolar>50%))”. With `C#CCN1CCC(/C=C/c2ccc(S(C)(=O)=O)cc2)CC1` [Compound 90, (E)-4-(4-(Methylsulfonyl)styryl)-1-(prop-2-yn-1-yl)piperidine] the “IC50(MAO-A) class” value was “na (na-not_active(RA_at_100micromolar>50%))”. In the case of `C#CCN1CCC(CCc2ccc(C)cc2)CC1` [Compound 96, 4-(4-Methylphenethyl)-1-(prop-2-yn-1-yl)piperidine], the “IC50(MAO-A) class” value is reported as “na (na-not_active(RA_at_100micromolar>50%))”. In the case of `C#CCN1CCC(CCc2ccc(Cl)cc2)CC1` [Compound 98, 4-(4-Chlorophenethyl)-1-(prop-2-yn-1-yl)piperidine], the “IC50(MAO-A) class” value is reported as “na (na-not_active(RA_at_100micromolar>50%))”. In the case of `C#CCN1CCC(CCc2ccc(OC)cc2)CC1` [Compound 99, 4-(4-Methoxyphenethyl)-1-(prop-2-yn-1-yl)piperidine], the “IC50(MAO-A) class” value is reported as “na (na-not_active(RA_at_100micromolar>50%))”. In the case of `C#CCN1CCC(CCc2cccc(C(F)(F)F)c2)CC1` [Compound 101, 1-(Prop-2-yn-1-yl)-4-(3-(trifluoromethyl)phenethyl)piperidine], the “IC50(MAO-A) class” value is reported as “na (na-not_active(RA_at_100micromolar>50%))”. With `C#CCN1CCC(/C=C\c2ccc(C(N)=O)cc2)CC1` [Compound 104, (Z)-4-(2-(1-(Prop-2-yn-1-yl)piperidin-4-yl)vinyl)benzamide] the “IC50(MAO-A) class” value was “na (na-not_active(RA_at_100micromolar>50%))”. In the case of `C#CCN1CCC(/C=C/c2ccc(C(N)=O)cc2)CC1` [Compound 105, (E)-4-(2-(1-(Prop-2-yn-1-yl)piperidin-4-yl)vinyl)benzamide], the “IC50(MAO-A) class” value is reported as “na (na-not_active(RA_at_100micromolar>50%))”. For `C#CCN1CCC(CCc2ccc(C(N)=O)cc2)CC1` [Compound 106, 4-(2-(1-(Prop-2-yn-1-yl)piperidin-4-yl)ethyl)benzamide], the “IC50(MAO-A) class” value was “na (na-not_active(RA_at_100micromolar>50%))”. In the case of `C#CCN1CCC(CCc2ccc(O)cc2)CC1` [Compound 107, 4-(2-(1-(Prop-2-yn-1-yl)piperidin-4-yl)ethyl)phenol], the “IC50(MAO-A) class” value is reported as “na (na-not_active(RA_at_100micromolar>50%))”.

Tested on: not listed separately
Experiment: Thermodynamic solubility in PBS
Format: physicochemical
Conditions: PBS (pH 7.4), 37 °C, 24 h, hydrochloride salts
For `C#CCN1CCC(CCc2ccc(C(C)C)cc2)CC1` [Compound 97, 4-(4-Isopropylphenethyl)-1-(prop-2-yn-1-yl)piperidine], the thermodynamic solubility was no less than 14.5 g/250 mL.

Target: T2, 5-HT1A receptor (Rattus norvegicus, UniProt P19327)
T2 construct: from tissue; host or cells: rat (male Wistar) brain cortex membranes
T2 sequence (P19327 1-422): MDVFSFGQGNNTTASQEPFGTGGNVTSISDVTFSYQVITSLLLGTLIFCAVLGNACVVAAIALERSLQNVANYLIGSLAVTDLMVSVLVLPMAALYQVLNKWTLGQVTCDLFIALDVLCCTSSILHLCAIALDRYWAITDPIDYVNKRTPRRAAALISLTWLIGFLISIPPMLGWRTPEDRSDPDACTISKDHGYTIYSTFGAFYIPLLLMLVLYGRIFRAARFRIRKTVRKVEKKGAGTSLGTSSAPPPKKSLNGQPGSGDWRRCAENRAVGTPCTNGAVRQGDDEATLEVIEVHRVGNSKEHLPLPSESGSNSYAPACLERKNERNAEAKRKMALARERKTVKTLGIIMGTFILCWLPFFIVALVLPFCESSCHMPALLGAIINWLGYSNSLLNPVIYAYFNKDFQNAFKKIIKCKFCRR
Experiment: [3H]-8-OH-DPAT radioligand binding assay, rat cortex membranes
Conditions: [3H]-8-OH-DPAT binding, means ±SEM
Compound `C#CCN1CCC(CCc2ccc(C#N)cc2)CC1` [Compound 102, 4-(2-(1-(Prop-2-yn-1-yl)piperidin-4-yl)ethyl)benzonitrile] has a Ki of 8.6 ± 1.7 µM.

Same assay, conditions: read-out: Inhibition at 300 µM
Work on `C#CCN1CCC(CCc2ccc(C#N)cc2)CC1` [Compound 102, 4-(2-(1-(Prop-2-yn-1-yl)piperidin-4-yl)ethyl)benzonitrile] yielded an inhibition at 300 µM of 78%.

Tested on: Swiss mice
Experiment: Tail suspension test
Format: in vivo, mouse
Conditions: ip 30 min before; 6, 67 at 3 and 10 mg/kg, 69 at 1, 3, 10, 30 mg/kg, imipramine 30 mg/kg
Description: The antidepressant-like activity was screened with the widely used tail suspension test. At 30 min before the behavioral assays, the mice were treated with 6, 67, and 69 at 3 mg/kg and 10 mg/kg ip, with 69 also at 1 mg/kg and 30 mg/kg ip, or were injected with 0.9% saline as control. Imipramine (30 mg/kg ip) was used as the reference drug.
(A) Effects of acute ip treatment with 6 (3, 10 mg/kg, n = 13, 9), 67 (3, 10 mg/kg, n = 6, 10), and 69 (1, 3, 10, 30 mg/kg, n = 8, 7, 8, 6) and imipramine (30 mg/kg, n = 8) in the tail suspension test. […] (B) Effects of acute ip treatment with 6 (3, 10 mg/kg, n = 8, 8), 67 (1, 3, 6 mg/kg; n = 5, 5, 5), and 69 (1, 3, 6 mg/kg, n = 10, 5, 5) on locomotor activity of the mice. […] (C) Effects of 10-day chronic ip treatment with 69 (0.3 mg/kg, daily; n = 10) in the tail suspension test. Data are mean values ± SEM of the immobility time, compared to control mice (n = 8): ∗∗, p < 0.01 (unpaired t-test). […]
quality control sample every seven test samples. The absolute matrix effect was checked by comparing the analyte responses in the standard solutions to the samples spiked in the tissue incubation medium from the control experiment without the analyte, and a deviation of less than ±20% was deemed acceptable.
4.2.10In vitro radioligand binding assay
Rats were humanely killed by decapitation and their brains were removed, washed and rapidly dissected on ice. Homogenisation was performed using a homogeniser (PRO Scientific Inc) at 30,000 rpm for 1 min. For 5-HT1A binding assays, the cortex tissues were homogenised in 30 volumes/weight ice-cold 50 mM Tris–HCl buffer (pH 7.4), and the homogenate was centrifuged at 40,000× g for 15 min at 0 °C to 4 °C. The resulting pellets were resuspended in 30 volumes/weight of the same buffer, and incubated at 37 °C for 20 min. The centrifugation step was repeated twice under the same conditions as described above, and the final pellets were resuspended in 30 volumes/weight 50 mM Tris–HCl buffer (pH 7.4), and stored at –80 […]
For the [3H]-8-OH-DPAT binding assay (the 5-HT1A receptor binding assay), the membranes were thawed and resuspended in 50 mM Tris–HCl (pH 7.4) with 1 mM MnCl2, to a final protein concentration of 0.5 mg/mL. The incubation was carried out at 25 °C for 1 h in a final volume of 1 mL membrane suspension in the presence of the sample assayed and with 0.2 nM [3H]-8-OH-DPAT (170.2 Ci/mmol). Serotonin was used as the positive control. Non-specific binding was determined in parallel incubations in the presence of serotonin (10 μM).
4.2.11 Tail suspension test
The tail suspension test was carried out according to the methodology proposed by Steru and co-workers.22 The mice were individually suspended by the tail from a metal hook (distance
In the case of `CN(C)CCCN1c2ccccc2CCc2ccccc21` [imipramine, reference compound], the “immobility time, acute treatment” value is reported as “significantly reduced”.

Tested on: Swiss mice
Experiment: Elevated plus maze test
Format: in vivo, mouse
Conditions: acute ip, 1 mg/kg
With `CN1C(=O)CN=C(c2ccccc2)c2cc(Cl)ccc21` [Diazepam, reference compound] the “Open arm entries (%)” value was 29.9 ±3.2%, the “Time in centre (%)” value was 37.6 ±5.8% and the “Time in open arms (%)” value was 22.3 ±3.1%. The Total arm entries was 36.0 ±3.2.

Tested on: SH-SY5Y cells
Experiment: MTS cytotoxicity assay
Conditions: 24 h, 5 μM and 10 μM
For `C#CCN1CCC(/C=C/c2ccc(F)cc2)CC1` [Compound 1, (E)-4-(4-Fluorostyryl)-1-(prop-2-yn-1-yl)piperidine], the cytotoxic effects was “no significant cytotoxic effects”. With `C#CCN1CCC(CCc2ccc(C(C)C)cc2)CC1` [Compound 97, 4-(4-Isopropylphenethyl)-1-(prop-2-yn-1-yl)piperidine] the cytotoxic effects was “no significant cytotoxic effects”. In the case of `C#CCN1CCC(CCc2ccc(C#N)cc2)CC1` [Compound 102, 4-(2-(1-(Prop-2-yn-1-yl)piperidin-4-yl)ethyl)benzonitrile], the cytotoxic effects is reported as “no significant cytotoxic effects”.
